{
  "source": "paper PMC8185805",
  "about": "“An improved method for the incorporation of fluoromethyl ketones into solid phase peptide synthesis techniques” (RSC Advances, 2021)",
  "test_system": "3CL^pro of SARS-CoV-2",
  "settings": "pH 7.6",
  "note": "*: point of attachment. Cbz = O=C(OCc1ccccc1)*; CH2F = FC*",
  "data": [
    {"substance": "Cbz-SAVLD(OMe)-CH2F [compound 15]", "values": [
      {"measurement": "3CL^pro protease activity in the presence of PFMK inhibitor (gel-based cleavage of FLAG-His-SAVLQ-nsp9)", "value": "completely abolished"}
    ]}
  ]
}
